Test results published in article PMC10820097, “Benzofuran Derivatives from Cortex Mori Radicis and Their Cholinesterase-Inhibitory Activity” (Molecules, 2024).
Where “and” joins values, the source holds several entries; their conditions need not be identical. Equal entries are not always repeated. Where two headings read alike, the source gives them in different places.

Columns and labels:
BChE (EC 3.1.1.8) [1] = molecular target: T1, BChE (EC 3.1.1.8) (Equus caballus, UniProt P81908); test: BChE inhibitory activity assay (modified Ellman's method); type: biochemical; settings: for IC50: sample concentration that led to 50% enzyme activity loss, mean ± SD, triplicate; for BChE inhibitory effect, in words: up to 100 μM where stated
T1 construct: BChE (EC 3.1.1.8, from equine serum); purchased Aladdin Industrial Co., Ltd. (Shanghai, China); host or cells: equine serum (natural source)
T1 sequence (P81908 whole entry): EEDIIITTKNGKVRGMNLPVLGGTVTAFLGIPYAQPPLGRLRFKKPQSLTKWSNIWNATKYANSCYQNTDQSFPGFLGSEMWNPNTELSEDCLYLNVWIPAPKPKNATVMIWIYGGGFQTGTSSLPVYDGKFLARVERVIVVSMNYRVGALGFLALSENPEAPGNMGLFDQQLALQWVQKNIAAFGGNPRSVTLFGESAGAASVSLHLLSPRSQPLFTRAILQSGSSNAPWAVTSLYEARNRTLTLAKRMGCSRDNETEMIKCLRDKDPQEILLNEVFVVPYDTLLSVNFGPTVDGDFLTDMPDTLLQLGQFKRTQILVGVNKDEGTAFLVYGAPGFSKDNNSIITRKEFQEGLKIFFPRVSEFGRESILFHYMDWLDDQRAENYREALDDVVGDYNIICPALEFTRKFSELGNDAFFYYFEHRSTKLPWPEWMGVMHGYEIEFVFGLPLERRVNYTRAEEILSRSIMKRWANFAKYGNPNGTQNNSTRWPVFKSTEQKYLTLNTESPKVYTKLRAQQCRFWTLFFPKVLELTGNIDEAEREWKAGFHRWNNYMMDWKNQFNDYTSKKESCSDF
Protocol: (§1) AChE (EC 3.1.1.7, from electric eel), BChE (EC 3.1.1.8, from equine serum), acetylthiocholine iodide (ATCI), butyrylthiocholine iodide (BTCI), and 5,5′-dithiobis (2-nitrobenzoic acid) (DTNB) were purchased from Aladdin Industrial Co., Ltd. (Shanghai, China).
(§2) Briefly, AChE and BChE solutions (0.2 units/mL) and ATCI, BTCI, and DTNB solutions (10 mM) were prepared in PBS solution (0.1 M, pH 8.0). The test compound stock solutions (10 mM) were made using methanol, and five different concentrations of each compound were prepared by doubling the dilution with methanol to determine the half-maximal inhibitory concentration (IC50). Firstly, 160 μL of PBS, 2 μL of the test samples, 20 μL of AChE or BChE, and 10 μL of DTNB were mixed and preincubated at 37 °C for 10 min. Thereafter, 10 μL of ATCI or BTCI was added to initiate the reaction, which was incubated at 37 °C for 25 min. The absorbance was measured at 412 nm during incubation. The inhibition rate was calculated using the following formula: IR% = [(Ac − As)]/(Ac − Ab] × 100%, where Ab denotes the absorbance of the blank control (20 μL of water replacing the enzyme solution), Ac represents the absorbance of the control (2 μL of methanol replacing the sample solutions), and As denotes the absorbance of the sample. All of the tests for each sample were performed in triplicate. The IC50 value of each compound was obtained by plotting the inhibition rate against the logarithm of its concentration, and the data were expressed as the mean ± SD.

AChE (EC 3.1.1.7) = molecular target: T2, AChE (EC 3.1.1.7) (Electrophorus electricus, UniProt O42275); test: biochemical; type: biochemical; settings: for IC50: sample concentration that led to 50% enzyme activity loss, mean ± SD, triplicate
T2 construct: AChE (EC 3.1.1.7, from electric eel); purchased Aladdin Industrial Co., Ltd. (Shanghai, China); host or cells: electric eel (natural source)
T2 sequence (O42275 24-633): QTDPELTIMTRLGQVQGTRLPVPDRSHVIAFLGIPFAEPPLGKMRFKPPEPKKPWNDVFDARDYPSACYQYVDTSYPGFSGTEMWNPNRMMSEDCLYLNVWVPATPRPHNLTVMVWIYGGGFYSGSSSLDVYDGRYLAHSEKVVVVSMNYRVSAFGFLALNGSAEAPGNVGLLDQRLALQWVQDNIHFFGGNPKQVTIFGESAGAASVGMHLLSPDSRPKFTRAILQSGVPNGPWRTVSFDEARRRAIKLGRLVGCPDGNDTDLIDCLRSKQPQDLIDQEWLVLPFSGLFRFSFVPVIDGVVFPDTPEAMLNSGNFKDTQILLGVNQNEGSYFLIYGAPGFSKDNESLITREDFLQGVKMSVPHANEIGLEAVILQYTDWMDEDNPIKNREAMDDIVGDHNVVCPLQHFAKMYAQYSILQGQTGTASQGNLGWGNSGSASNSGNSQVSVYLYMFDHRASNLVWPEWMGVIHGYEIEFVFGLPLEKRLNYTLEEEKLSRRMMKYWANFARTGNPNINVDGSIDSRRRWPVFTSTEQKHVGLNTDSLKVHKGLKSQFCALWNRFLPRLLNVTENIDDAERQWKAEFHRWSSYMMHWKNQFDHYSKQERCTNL
Protocol: as §1, §2

BChE [2] = tested on: BChE; design: method as in PMID 29786669; settings: read-out: BChE IC50 in previous research; cited from earlier work
BChE (EC 3.1.1.8) [3] = molecular target: T1, BChE (EC 3.1.1.8); test: Kinetic study of BChE inhibition (Lineweaver–Burk and secondary plots); type: biochemical; settings: for BChE Inhibition Type: Lineweaver–Burk plots; for BChE αKi: from secondary plot of 1/Vmax vs [I], binding to ES complex; for BChE α (thermodynamic cooperativity factor): αKi/Ki
Protocol: To determine the inhibition modes of the compounds, enzyme kinetic studies were carried out for the structurally representative inhibitors, namely, compounds 1, 8, 9, 11, and 14. […] For this type of interaction, inhibitors can bind to the free enzyme (E) and the enzyme–substrate (ES) complex, forming EI and ESI complexes, respectively. The Ki and αKi values for the inhibitors were determined from the secondary plots of the slope (Km/Vm) and the vertical intercept (1/Vm) from the Lineweaver–Burk plot as functions of the inhibitor concentration, respectively (Figure S2 in Supplementary Materials), and the thermodynamic cooperativity factor α differed among the five structurally diverse inhibitors (Table 3).
as §1
Using the same protocol as the inhibitory activity assay, kinetic studies of BChE inhibition were performed with a series of concentrations of substrate BTCI, namely, 0.1, 0.2, 0.3, 0.4, and 0.5 mM or 0.2, 0.4, 0.5, 0.6, and 0.7 mM. Three concentrations of each test compound were selected according to the IC50 value. The detection of absorbance was conducted during the enzymatic reaction at 10 min, 20 min, and 25 min. The change in absorbance per minute was referred to as the velocity of the enzyme-promoting reaction. The Lineweaver–Burk plots (double-reciprocal plots) were created by plotting the reciprocal of velocity (1/V) against the reciprocal of BTCI concentration (1/[BTCI]) for a compound at three concentrations, and the kinetic parameters, Michaelis constant (Km), and maximum velocity (Vmax) obtained therefrom were used to check the inhibition modes. The value of the inhibitor constant Ki was determined by referencing the secondary plot of the slope of the double-reciprocal lines (from the Lineweaver–Burk plot) as a function of [I], and the x intercept was equal to −Ki. Another secondary plot was fitted by 1/Vmax as a function of the inhibitor concentration [I], and the value of −αKi can be determined to be the x intercept therefrom.

[4] = cis-trans photoisomerization under UV exposure (HPLC detection); type: physicochemical; settings: UV exposure at 254 and 365 nm
From the text: The NMR data of 6 (Table 1 and Table 2) were identical to those of nigranol A previously isolated from Morus nigra Linn. The Δ7,8 double bond of nigranol A was formerly determined to be a Z-configuration according to the relatively large coupling constant (12.8 Hz) between H-8 and H-9, which is not applicable and convincing in view of the freely rotating single bond between C-8 and C-9. […] Fortunately, the crystals of compounds 1 and 6 were obtained, and single-crystal X-ray diffraction (XRD) analyses were conducted to determine the configuration of the Δ7,8 double bond. As a result, the isobutene moiety (C-9) and the carbonyl group (C-13), the larger substituent groups for C-8 and C-7, respectively, existed in cis- and trans-conformations in compounds 1 and 6, respectively (Figure 3). Therefore, compound 1 was determined to be (Z)-6-hydroxy-3-(3-methylbut-2-en-1-ylidene)benzofuran-2(3H)-one and named albaphenol A, while nigranol A (6) was revised as (E)-6-hydroxy-3-(3-methylbut-2-en-1-ylidene)benzofuran-2(3H)-one. […] Due to the cis–trans tautomerism also taking place slowly under natural light, the samples were stored in a 4 °C refrigerator under dark conditions, and the crystallizations of the two compounds were induced in nearly saturated methanol solution under the same conditions.

BChE [5] = tested on: BChE; design: method as in PMID 31459768; settings: cited from earlier work
[6] = from secondary plot of slope of Lineweaver–Burk lines vs [I], binding to free enzyme, read-out: BChE Ki

## Oc1cc(O)cc(-c2cc3ccc(O)cc3o2)c1 [Compound 10, moracin M]
BChE (EC 3.1.1.8) [1]; read-out: IC50 BChE
  IC50: > 100 µM
BChE (EC 3.1.1.8) [1]
  BChE inhibitory effect, in words: did not inhibit
AChE (EC 3.1.1.7)
  IC50: > 100 µM
BChE [2]
  IC50: 38.1 µM

## CC(C)=CCc1c(O)cc2c(c1-c1cc3ccc(O)cc3o1)C=CC(C)(C)O2 [Compound 14, cathafuran C]
BChE (EC 3.1.1.8) [1]
  selective index (AChE IC50/BChE IC50 ratio): over 38
BChE (EC 3.1.1.8) [1]; read-out: IC50 BChE
  IC50: 2.6 ± 0.2 µM
BChE (EC 3.1.1.8) [3]
  BChE Inhibition Type: Competitive
  BChE αKi: 22.7 µM
  BChE α (thermodynamic cooperativity factor): 13.35
BChE (EC 3.1.1.8) [3]; [6]
  Ki: 1.7 µM
AChE (EC 3.1.1.7)
  IC50: > 100 µM

## COC(=O)/C(=C/C=C(C)C)c1ccc(O)cc1O [Compound 2, albaphenol B]
BChE (EC 3.1.1.8) [1]; read-out: IC50 BChE
  IC50: > 100 µM
AChE (EC 3.1.1.7)
  IC50: > 100 µM

## CC(C)=CCc1c(O)cc(-c2cc3ccc(O)cc3o2)cc1O [Compound 8, moracin C]
BChE (EC 3.1.1.8) [1]; read-out: IC50 BChE
  IC50: 27.9 ± 3.5 µM
BChE (EC 3.1.1.8) [3]
  BChE Inhibition Type: Mixed competitive
  BChE αKi: 71.1 µM
  BChE α (thermodynamic cooperativity factor): 5.55
BChE (EC 3.1.1.8) [3]; [6]
  Ki: 12.8 µM
AChE (EC 3.1.1.7)
  IC50: > 100 µM

## CC(C)=C/C=C1\C(=O)Oc2cc(O)ccc21 [Compound 1, (Z)-6-hydroxy-3-(3-methylbut-2-en-1-ylidene)benzofuran-2(3H)-one]
BChE (EC 3.1.1.8) [1]; read-out: IC50 BChE
  IC50: 45.5 ± 5.9 µM
BChE (EC 3.1.1.8) [3]
  BChE Inhibition Type: Mixed uncompetitive
  BChE αKi: 43.0 µM
  BChE α (thermodynamic cooperativity factor): 0.46
BChE (EC 3.1.1.8) [3]; [6]
  Ki: 93.4 µM
AChE (EC 3.1.1.7)
  IC50: > 100 µM
[4]
  time to almost reach equilibrium of cis-trans photoisomerization (1 and 6, ratio approximately 1:1): ≤ 30 min

## CC(C)=CCc1c(O)cc(O)c(CC=C(C)C)c1-c1cc2ccc(O)cc2o1 [Compound 15, mulberrofuran V]
BChE (EC 3.1.1.8) [1]; read-out: IC50 BChE
  IC50: 27.1 ± 6.8 µM
AChE (EC 3.1.1.7)
  IC50: > 100 µM

## CC1(C)Oc2cc3oc(-c4cc(O)cc(O)c4)cc3cc2C[C@H]1O [Compound 13, moracin P]
BChE (EC 3.1.1.8) [1]
  BChE inhibitory effect, in words: neither moracin O (12) nor P (13) exhibited a significant inhibitory effect
BChE [2]
  IC50: 38 µM

## COc1cc(O)cc(-c2cc3cc(O)c(OC)cc3o2)c1 [Compound 7, moracin B]
BChE (EC 3.1.1.8) [1]; read-out: IC50 BChE
  IC50: > 100 µM
BChE (EC 3.1.1.8) [1]
  BChE inhibitory effect, in words: did not inhibit
AChE (EC 3.1.1.7)
  IC50: > 100 µM

## COC(=O)C(CC=C(C)C)c1ccc(O)cc1O (centres unmarked) [Compound 3, methyl 2-(2,4-dihydroxyphenyl)-5-methylhex-4-enoate]
BChE (EC 3.1.1.8) [1]; read-out: IC50 BChE
  IC50: > 100 µM
AChE (EC 3.1.1.7)
  IC50: > 100 µM

## CC(C)=CCc1cc2cc(-c3cc(O)cc(O)c3)oc2cc1O [Compound 11, moracin N]
BChE (EC 3.1.1.8) [1]; read-out: IC50 BChE
  IC50: 13.5 ± 1.6 µM
BChE (EC 3.1.1.8) [3]
  BChE Inhibition Type: Noncompetitive
  BChE αKi: 13.3 µM
  BChE α (thermodynamic cooperativity factor): 1.05
BChE (EC 3.1.1.8) [3]; [6]
  Ki: 12.7 µM
AChE (EC 3.1.1.7)
  IC50: 40.5 ± 4.7 µM

## CCOC(=O)C(CC=C(C)C)c1ccc(O)cc1O (centres unmarked) [Compound 4, ethyl 2-(2,4-dihydroxyphenyl)-5-methylhex-4-enoate]
BChE (EC 3.1.1.8) [1]; read-out: IC50 BChE
  IC50: 61 ± 3.4 µM
AChE (EC 3.1.1.7)
  IC50: > 100 µM

## CC(C)(O)C1Cc2cc3cc(-c4cc(O)cc(O)c4)oc3cc2O1 (centres unmarked) [Compound 12, moracin O]
BChE (EC 3.1.1.8) [1]
  BChE inhibitory effect, in words: neither moracin O (12) nor P (13) exhibited a significant inhibitory effect
BChE [2]
  IC50: 28.2 µM

## CC(C)=C/C=C1/C(=O)Oc2cc(O)ccc21 [Compound 6, (E)-6-hydroxy-3-(3-methylbut-2-en-1-ylidene)benzofuran-2(3H)-one]
BChE (EC 3.1.1.8) [1]; read-out: IC50 BChE
  IC50: 94.8 µM and > 100 µM
BChE (EC 3.1.1.8) [1]
  BChE inhibitory effect, in words: no obvious inhibition
AChE (EC 3.1.1.7)
  IC50: > 100 µM
AChE (EC 3.1.1.7); up to 100 μM where stated
  AChE inhibitory effect, in words: no obvious inhibition
[4]
  time to almost reach equilibrium of cis-trans photoisomerization (1 and 6, ratio approximately 1:1): ≤ 30 min

## CC(C)=CCCC1(C)C=Cc2c(ccc3cc(-c4cc(O)cc(O)c4CC=C(C)C)oc23)O1 (centres unmarked) [mulberrofuran D2]
BChE [5]
  IC50: 1.51 µM

## CC(C)(O)CCC(=O)c1ccc(O)cc1O [Compound 5, 1-(2,4-dihydroxyphenyl)-4-hydroxy-4-methylpentan-1-one]
BChE (EC 3.1.1.8) [1]; read-out: IC50 BChE
  IC50: > 100 µM
AChE (EC 3.1.1.7)
  IC50: > 100 µM

## COc1cc(O)c(CC=C(C)C)c(-c2cc3ccc(O)cc3o2)c1CC=C(C)C [Compound 16, mulberrofuran N]
BChE (EC 3.1.1.8) [1]; read-out: IC50 BChE
  IC50: 32.8 ± 4.2 µM
AChE (EC 3.1.1.7)
  IC50: > 100 µM

## CC1(C)C=Cc2c(O)cc(-c3cc4ccc(O)cc4o3)cc2O1 [Compound 9, moracin D]
BChE (EC 3.1.1.8) [1]; IC50 BChE
  IC50: 9.5 ± 3.2 µM
BChE (EC 3.1.1.8) [3]
  Ki: 5.7 µM
  BChE Inhibition Type: Mixed competitive
  BChE αKi: 25.2 µM
  BChE α (thermodynamic cooperativity factor): 4.42
AChE (EC 3.1.1.7)
  IC50: 81.2 ± 3.9 µM

## CC(C)=CCC/C(C)=C/Cc1c(O)ccc2cc(-c3cc(O)cc(O)c3CC=C(C)C)oc12 [mulberrofuran D]
BChE [5]
  IC50: 6.12 µM
